Measured values from article PMC2806525, “Proteinase-activated receptor-2 mediated inhibition of TNFα-stimulated JNK activation — A novel paradigm for Gq/11 linked GPCRs” (Cellular Signalling, 2010).
“Also recorded” adds a separate entry of the source. Values belong to the compound of their own block, whether it stands above or below them. Residues, ends and D or L forms follow the SMILES beside them.

How the values were obtained:
[1] = biological target: T1, human PAR2 (Homo sapiens, UniProt P55085); assay: JNK activity, agent alone, PAR2 NCTC2544 cells (clone G); type: cell-based; conditions: 30 min, no TNFα, mean ± s.e.m, at least 4 experiments
T1 construct: expressed in transfected cells
T1 sequence (P55085 26-397): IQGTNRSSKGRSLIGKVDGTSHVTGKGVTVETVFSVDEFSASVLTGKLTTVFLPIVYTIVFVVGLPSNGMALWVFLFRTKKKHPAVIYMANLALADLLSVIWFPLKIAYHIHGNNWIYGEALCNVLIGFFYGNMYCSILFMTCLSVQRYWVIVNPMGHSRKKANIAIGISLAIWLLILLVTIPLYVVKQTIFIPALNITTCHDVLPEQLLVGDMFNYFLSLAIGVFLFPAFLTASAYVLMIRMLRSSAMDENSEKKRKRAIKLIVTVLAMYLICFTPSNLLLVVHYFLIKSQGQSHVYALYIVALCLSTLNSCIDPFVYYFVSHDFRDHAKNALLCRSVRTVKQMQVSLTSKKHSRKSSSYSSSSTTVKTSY
Experimental: (§1) Human skin epithelial cells NCTC2544 were maintained in M199 medium with Earl's salt supplement, 10% (v/v) foetal calf serum, L-glutamine (27 µg/ml), penicillin (250 U/ml), and streptomycin (25 mg/ml). NCTC2544 cells stably expressing human PAR2 (clone G) were maintained in complete M199 medium containing 400 μg/ml of Geneticin for selection pressure and passaged using Versene (2% EDTA/PBS). EAhy-926 cells were produced by hybridizing human umbilical vein endothelial cells (HUVECs) with the epithelial cell line A549 [27] and maintained in Dulbecco's Modified Eagle's Medium (DMEM) supplemented with 10% foetal calf serum (FCS), hypoxanthine/aminopterin/thymidine (HAT supplement), penicillin (250 U/ml) and streptomycin (25 mg/ml), and cells were passaged using Versene.
To measure JNK activity, cells were stimulated as appropriate and the reaction terminated by rapid aspiration and the addition of ice-cold PBS. The cells were solubilised in 20 mM HEPES buffer, pH 7.7, containing 50 mM NaCl, 0.1 mM EDTA, 0.1 mM Na3VO4, 0.1 mM PMSF, 10 mg/ml aprotinin, 10 mg/ml leupeptin, and 1% (w/v) Triton X-100. Lysates were clarified by centrifugation for 5 min at 13,000 rpm and equal amounts of protein were incubated with 20 μg of GST-c-Jun-(5–89) immobilized on glutathione-Sepharose at 4 °C for 3 h. […] Phosphorylation of GST-c-Jun was then determined by autoradiography. […]
(§2) Fig. 4 Concentration response effects of PAR2 peptides for activation of JNK and inhibition of TNFα-stimulated JNK. PAR2 expressing NCTC2544 cells (clone G) were incubated with increasing concentrations of SLIGKV-OH or 2f-LIGKV-OH for 30 min and assayed for JNK activity (Panel B) or stimulated for a further 30 min with TNFα (+) before JNK activity was assessed (Panel A). Samples were assessed for JNK activity as outlined in the Methods section. Gels from JNK assays were quantified (Panel C). Each value represents the mean ± s.e.m from at least 4 experiments and data was quantified by densitometry.

[2] = biological target: T1, human PAR2; assay: TNFα-stimulated JNK activity (in vitro c-Jun phosphorylation), PAR2 agonist pre-incubation, PAR2 NCTC2544 cells (clone G); type: cell-based; conditions: 30 min pre-incubation, then TNFα 30 min, mean ± s.e.m, at least 4 experiments
Experimental: as §1
To measure JNK activity, cells were stimulated as appropriate and the reaction terminated by rapid aspiration and the addition of ice-cold PBS. […] Phosphorylation of GST-c-Jun was then determined by autoradiography. […]
Fig. 1 PAR2 activation mediates inhibition of TNFα-stimulated JNK activity and phosphorylation in PAR2 NCTC2544 cells. […] Samples were assessed for JNK activity (Panel A) or phospho-JNK levels (Panel C) as outlined in the Methods section. Gels from JNK assays were quantified (Panel B). Each value represents the mean ± s.e.m from at least 4 experiments and data was quantified by densitometry. ⁎P < 0.05, ⁎⁎P < 0.01 compared to TNFα alone.
as §2

[3] = system: PKC; assay: TNFα-stimulated JNK phosphorylation, PKC activator / PKC inhibitor, PAR2 NCTC2544 cells; type: cell-based, human; conditions: GF109203X 10 μM; trypsin or SLIGKV-OH; TNFα 10 ng/ml 30 min
Experimental: as §1
Proteins were separated by 10% SDS–PAGE and transferred onto nitrocellulose. The membranes were blocked for non-specific binding for 2 h in 2% BSA (w/v) diluted in NATT buffer (50 mM Tris–HCl, 150 mM NaCl, 0.2% (v/v) Tween-20). […]
Fig. 5 Pharmacological blockade of protein kinase C reverses PAR2 mediated inhibition of TNFα-stimulated JNK activation. […] Samples were assessed for JNK activity (Panels A and B) or phospho-JNK levels (Panel D) as outlined in the Methods section. Gels from JNK activity assays were quantified by densitometry (Panel C). […]

[4] = system: PKC; assay: TNFα-stimulated JNK activity, PKC activator / PKC inhibitor, PAR2 NCTC2544 cells; type: cell-based, human
Experimental: as §1
To measure JNK activity, cells were stimulated as appropriate and the reaction terminated by rapid aspiration and the addition of ice-cold PBS. The cells were solubilised in 20 mM HEPES buffer, pH 7.7, containing 50 mM NaCl, 0.1 mM EDTA, 0.1 mM Na3VO4, 0.1 mM PMSF, 10 mg/ml aprotinin, 10 mg/ml leupeptin, and 1% (w/v) Triton X-100. Lysates were clarified by centrifugation for 5 min at 13,000 rpm and equal amounts of protein were incubated with 20 μg of GST-c-Jun-(5–89) immobilized on glutathione-Sepharose at 4 °C for 3 h. Beads were then washed three times in solubilisation buffer and twice in 25 mM HEPES buffer, pH 7.6, containing 20 mM β-glycerophosphate, 0.1 mM NaV3O4, and 2 mM dithiothreitol. Precipitates were then incubated with the same buffer containing 25 μM/0.5 μCi of ATP/[γ-^32P] ATP in a final volume of 30 µl at 30 °C for 30 min. The reactions were terminated by the addition of 4× SDS-sample buffer and aliquots of each sample subjected to electrophoresis on 11% SDS-polyacrylamide gel electrophoresis. Phosphorylation of GST-c-Jun was then determined by autoradiography.
Where experimental data is shown as a blot, this represents one of at least 3 experiments and data represents the mean ± s.e.m. Statistical analysis was by one-way ANOVA with Dunnett's post test (*P < 0.05, **P < 0.01).
Fig. 5 Pharmacological blockade of protein kinase C reverses PAR2 mediated inhibition of TNFα-stimulated JNK activation. PAR2 expressing NCTC2544 cells (clone G) were pre-incubated with increasing concentrations of GF109203X (GFX) for 30 min then incubated for a further 30 min with 100 nM PMA (Panel A) or 30 nM trypsin (Panel B) prior to stimulation for a further 30 min with TNFα(+) (10 ng/ml). Samples were assessed for JNK activity (Panels A and B) or phospho-JNK levels (Panel D) as outlined in the Methods section. Gels from JNK activity assays were quantified by densitometry (Panel C). Each value represents the mean ± s.e.m from at least 4 experiments. ⁎⁎P < 0.01 compared to TNFα and trypsin stimulated.

[5] = system: TNFR1/TRADD; assay: TNFR1/TRADD complex formation (TNFR1 immuno-precipitation, TRADD immuno-blot), PAR2 expressing cells; type: cell-based, human; conditions: 100 nM YM254890 or 3 μM GF109203X 30 min, peptide 100 μM 30 min, TNFα 10 ng/ml 30 min
Experimental: as §1
Proteins were separated by 10% SDS–PAGE and transferred onto nitrocellulose. The membranes were blocked for non-specific binding for 2 h in 2% BSA (w/v) diluted in NATT buffer (50 mM Tris–HCl, 150 mM NaCl, 0.2% (v/v) Tween-20). The blots were then incubated overnight with 50 ng/ml primary antibody diluted in 0.2% BSA (w/v) in NATT buffer. The blots were washed with NATT buffer for 90 min and incubated with HRP-conjugated secondary antibody (20 ng/ml in 0.2% BSA (w/v) diluted in NATT buffer) for 2 h. After a further 90 min wash, the blots were subjected to ECL reagent and exposed to Kodak X-ray film.
For immuno-precipitation of TNFR1, equal amounts of pre-cleared cell lysates were incubated in Tris–HCl buffer, pH 7.4, containing 50 mM NaCl, 1 mM EDTA, 1 mM EGTA, 1% (w/v) Triton X-100, and 0.5% (w/v) Nonidet P-40, with 2 μg TNFR1 antibody, pre-coupled to protein G, for 3 h. Lysates were recovered by sequential washes in solubilisation buffer and in the same buffer lacking detergents. Precipitates were assessed for TRADD or RIP content using Western blotting.
Fig. 7 PAR2 mediated TNFR1 adapter protein disruption in PAR2 expressing cells. In Panel A, cells were pre-treated with peptide (100 μM) or vehicle prior to stimulation with TNFα (10 ng/ml) for 30 min. Lysates were immuno-precipitated for TNFR1 and immuno-blotted for TRADD and/or RIP, as outlined in the Methods section. In Panel B cells were pre-treated with 100 nM YM254890 or 3 μM GF109203X for 30 min prior to pre-treatment with peptide (100 μM), for 30 min, then incubated for a further 30 min with TNFα (10 ng/ml). TNFR1 immuno-precipitates were immuno-blotted for TRADD. Each gel is representative of at least three experiments.

[6] = system: PKC isoforms; conditions: cited from earlier work
Text: We then examined the potential signalling pathways which could be mediating the inhibitory effects of PAR2. PAR2 is coupled to a number of signalling pathways via G-protein dependent and independent mechanisms. […] Therefore, we tested the effect of the PKC inhibitor GF109203X on PAR2 mediated inhibition of JNK activity and phosphorylation. ... || We then sought to investigate the possible mechanisms by which PAR2 mediated inhibition of JNK might occur. […] This is typical of a number of keratinocyte cell type ...

EC50 ([1]; densitometry, read-out: EC50, stimulation of JNK activity by peptide alone): 10.1 ± 3.3 µM | % stimulation of JNK activity alone ([1]; maximal efficacy comparison): 43.950 ± 6.482% | IC50 ([2]; densitometry, read-out: IC50, inhibition of TNFα-stimulated JNK activity): 6.24 ± 1.32 µM | % inhibition of TNFα-stimulated JNK activity ([2]; maximal efficacy comparison): 93.567 ± 6.882%
Structure (SMILES): CC[C@H](C)[C@H](NC(=O)[C@H](CC(C)C)NC(=O)[C@@H](N)CO)C(=O)NCC(=O)N[C@@H](CCCCN)C(=O)N[C@H](C(=O)O)C(C)C [SLIGKV-OH] (H-SLIGKV-OH)

Structure (SMILES): CN(C)CCCn1cc(C2=C(c3c[nH]c4ccccc34)C(=O)NC2=O)c2ccccc21 [GF109203X]
reversal of PAR2 mediated inhibition of JNK phosphorylation by PKC inhibitor [3]: reversed the inhibitory effect | reversal of PAR2 mediated inhibition of JNK activity by PKC inhibitor ([4]; GF109203X 10 μM (maximal concentration), trypsin 30 nM or SLIGKV-OH, TNFα 10 ng/ml 30 min): reversed the inhibitory effect of trypsin and SLIGKV-OH on TNFα-stimulated JNK activation | reversal of PAR2 mediated JNK inhibition by PKC inhibitor, general statement ([4]; abstract / discussion): the effects of both agents were reversed; also recorded: good reversal of PAR2 mediated inhibition | reversal of PMA effect on TNFα-stimulated JNK activity ([4]; micromolar concentrations GF109203X 30 min, 100 nM PMA 30 min, TNFα 10 ng/ml 30 min): reversed by micromolar concentrations | reversal of PAR2 mediated disruption of TNFR1/TRADD complex [5]: effectively reversed PAR2 mediated disruption | PKC isoform inhibition ([6]; ref [40–42]): block both Ca^2+-dependent and some novel PKC isoforms

Structure (SMILES): Cn1c2ccccc2c2c3c(c4c5ccccc5n(CCC#N)c4c21)CNC3=O [Go6976]
effect of classical PKC inhibitor on PAR2 mediated JNK inhibition ([4]; not shown): without effect | PKC isoform preference ([6]; no reference given): preferentially inhibits the classical group of PKC isoforms
